Source: PubChem BioAssay AID248 (DTP/NCI, 2004)
Several values for one entry are separate records, joined by “and”; a condition that tells them apart may be missing. Equal entries are not always repeated. Inconclusive results and toxic doses are left out.

Tested on: L1210 leukemia ip in BDF1 mice, survival T/C
Assay: NCI In Vivo Anticancer Drug Screen. Data for tumor model L1210 Leukemia (intraperitoneal) in B6D2F1 (BDF1) mice
Details: endpoint: mean survival time, higher = longer survival
How it was run: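 Tumor was transplanted into mice, which were then dosed with test compound or vehicle alone. Survival was recorded for each group, and the treated figure was expressed relative to the control figure.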

[1] = dose: 50.0 mg/kg/injection, schedule: Q04DX003 (ip), vehicle: Klucel (hydroxypropylcellulose) (HPC)
[2] = dose: 100.0 mg/kg/injection, schedule: Q01DX009 (ip), vehicle: saline
[3] = dose: 100.0 mg/kg/injection, schedule: Q04DX003 (ip), vehicle: Klucel (hydroxypropylcellulose) (HPC)
[4] = dose: 100.0 mg/kg/injection, schedule: Q04DX003 (ip), vehicle: saline
[5] = dose: 200.0 mg/kg/injection, schedule: Q01DX009 (ip), vehicle: Klucel (hydroxypropylcellulose) (HPC)
[6] = dose: 200.0 mg/kg/injection, schedule: Q04DX003 (ip), vehicle: Klucel (hydroxypropylcellulose) (HPC)
[7] = dose: 400.0 mg/kg/injection, schedule: Q01DX009 (ip), vehicle: saline
[8] = dose: 200.0 mg/kg/injection, schedule: Q01DX001 (ip), vehicle: carboxymethylcellulose (CMC)
[9] = dose: 400.0 mg/kg/injection, schedule: Q04DX003 (ip), vehicle: Klucel (hydroxypropylcellulose) (HPC)
[10] = dose: 25.0 mg/kg/injection, schedule: Q04DX003 (ip), vehicle: saline with Tween-80
[11] = dose: 50.0 mg/kg/injection, schedule: Q04DX003 (ip), vehicle: saline with Tween-80
[12] = dose: 100.0 mg/kg/injection, schedule: Q01DX009 (ip), vehicle: Klucel (hydroxypropylcellulose) (HPC)
[13] = dose: 100.0 mg/kg/injection, schedule: Q01DX001 (ip), vehicle: carboxymethylcellulose (CMC)
[14] = dose: 400.0 mg/kg/injection, schedule: Q01DX001 (ip), vehicle: carboxymethylcellulose (CMC)
[15] = dose: 25.0 mg/kg/injection, schedule: Q01DX009 (ip), vehicle: Klucel (hydroxypropylcellulose) (HPC)
[16] = dose: 50.0 mg/kg/injection, schedule: Q01DX009 (ip), vehicle: Klucel (hydroxypropylcellulose) (HPC)
[17] = dose: 100.0 mg/kg/injection, schedule: Q01DX009 (ip), vehicle: saline with Tween-80
[18] = dose: 200.0 mg/kg/injection, schedule: Q01DX009 (ip), vehicle: saline with Tween-80

For `CCSc1ncnc2c1ncn2CN1CCOCC1`, the T/C (dose: 15.0 mg/kg/injection, schedule: Q01DX009 (ip), vehicle: saline) was 116 % of control, the T/C (dose: 40.0 mg/kg/injection, schedule: Q01DX009 (ip), vehicle: Klucel (hydroxypropylcellulose) (HPC)) was 113 % of control and the T/C (dose: 45.0 mg/kg/injection, schedule: Q01DX009 (ip), vehicle: saline) was 103 % of control and 111 % of control. The T/C [1] was 100 % of control, the T/C (dose: 60.0 mg/kg/injection, schedule: Q01DX009 (ip), vehicle: Klucel (hydroxypropylcellulose) (HPC)) was 116 % of control and the T/C (dose: 65.0 mg/kg/injection, schedule: Q01DX009 (ip), vehicle: saline) was 103 % of control and 111 % of control. The T/C (dose: 66.0 mg/kg/injection, schedule: Q01DX009 (ip), vehicle: saline) was 116 % of control, the T/C [2] was 108 % of control and the T/C [3] was 105 % of control. For the same molecule, the T/C [4] was 115 % of control, the T/C (dose: 120.0 mg/kg/injection, schedule: Q01DX009 (ip), vehicle: saline) was 177 % of control and the T/C (dose: 150.0 mg/kg/injection, schedule: Q01DX009 (ip), vehicle: saline) was 164 % of control and 168 % of control. For the same molecule, the T/C (dose: 150.0 mg/kg/injection, schedule: Q04DX003 (ip), vehicle: saline) was 111 % of control, the T/C (dose: 175.0 mg/kg/injection, schedule: Q01DX009 (ip), vehicle: saline) was 151 % of control and the T/C [5] was 173 % of control. For the same molecule, the T/C [6] was 109 % of control, the T/C (dose: 220.0 mg/kg/injection, schedule: Q01DX009 (ip), vehicle: saline) was 160 % of control and the T/C (dose: 220.0 mg/kg/injection, schedule: Q04DX003 (ip), vehicle: saline) was 119 % of control. For the same molecule, the T/C (dose: 225.0 mg/kg/injection, schedule: Q01DX009 (ip), vehicle: saline) was 122 % of control, the T/C (dose: 265.0 mg/kg/injection, schedule: Q01DX009 (ip), vehicle: saline) was 95 % of control and the T/C (dose: 330.0 mg/kg/injection, schedule: Q01DX009 (ip), vehicle: saline) was 107 % of control. For the same molecule, the T/C [7] was 88 % of control.
For `O=C(O)c1cn(C2CCCCC2)c(=O)[nH]c1=O`, the T/C (dose: 25.0 mg/kg/injection, schedule: Q01DX Z (ip), vehicle: methylcellulose (MC)) was 107 % of control and the T/C (dose: 50.0 mg/kg/injection, schedule: Q01DX Z (ip), vehicle: methylcellulose (MC)) was 91 % of control.
With `CC(C)(C)c1cc(Br)c(O)c(C(=O)O)c1` the T/C [8] was 98 % of control.
In the case of `CC(N)Cc1cn(C)c2ccccc12` (centres undefined), the T/C (dose: 6.25 mg/kg/injection, schedule: Q01DX009 (ip), vehicle: saline) is reported as 96 % of control, the T/C (dose: 12.5 mg/kg/injection, schedule: Q01DX009 (ip), vehicle: saline) is reported as 105 % of control and the T/C (dose: 25.0 mg/kg/injection, schedule: Q01DX009 (ip), vehicle: saline) is reported as 103 % of control. The T/C (dose: 25.0 mg/kg/injection, schedule: Q04DX003 (ip), vehicle: saline) was 101 % of control, the T/C (dose: 50.0 mg/kg/injection, schedule: Q01DX009 (ip), vehicle: saline) was 105 % of control and the T/C (dose: 50.0 mg/kg/injection, schedule: Q04DX003 (ip), vehicle: saline) was 95 % of control. For the same molecule, the T/C [2] was 97 % of control and the T/C [4] was 104 % of control.
For `O=C(O)CNS(=O)(=O)CCN1C(=O)c2ccccc2C1=O`, the T/C [3] was 96 % of control, the T/C [6] was 92 % of control and the T/C [9] was 96 % of control.
`CCN(CC)CC(=O)NCC(C)(CCN1CCOCC1)c1cccc2ccccc12` (centres undefined) was tested, and the T/C [2] was 105 % of control, the T/C (dose: 200.0 mg/kg/injection, schedule: Q01DX009 (ip), vehicle: saline) was 105 % of control and the T/C [7] was 110 % of control.
For `CC(C)(C)CC(C)(C)NS(=O)(=O)CCCBr`, the T/C [10] was 95 % of control and the T/C [11] was 111 % of control.
With `Cc1cccc(C(=O)NNC(=O)c2cccc(C)c2)c1` the T/C [12] was 106 % of control and the T/C [5] was 108 % of control.
With `CN(C)c1ccc2c(c1)Cc1cc(NC(N)=O)ccc1-2` the T/C [13] was 115 % of control, the T/C [8] was 96 % of control and the T/C [14] was 91 % of control.
`Cc1ccc(NC(=O)N(CCCCl)N=O)cc1` was tested, and the T/C [15] was 103 % of control, the T/C [16] was 93 % of control and the T/C (dose: 59.0 mg/kg/injection, schedule: Q01DX009 (ip), vehicle: carboxymethylcellulose (CMC)) was 120 % of control. For the same molecule, the T/C (dose: 88.0 mg/kg/injection, schedule: Q01DX009 (ip), vehicle: carboxymethylcellulose (CMC)) was 117 % of control, the T/C [13] was 115 % of control and the T/C [12] was 97 % of control. The T/C (dose: 118.0 mg/kg/injection, schedule: Q01DX001 (sc), vehicle: olive oil, sesame oil, peanut oil) was 107 % of control, the T/C (dose: 133.0 mg/kg/injection, schedule: Q01DX009 (ip), vehicle: carboxymethylcellulose (CMC)) was 88 % of control and the T/C (dose: 177.0 mg/kg/injection, schedule: Q01DX001 (ip), vehicle: carboxymethylcellulose (CMC)) was 100 % of control and 113 % of control. The T/C (dose: 177.0 mg/kg/injection, schedule: Q01DX001 (sc), vehicle: olive oil, sesame oil, peanut oil) was 107 % of control, the T/C [8] was 121 % of control and the T/C [5] was 97 % of control. For the same molecule, the T/C (dose: 266.0 mg/kg/injection, schedule: Q01DX001 (ip), vehicle: carboxymethylcellulose (CMC)) was 105 % of control, the T/C (dose: 266.0 mg/kg/injection, schedule: Q01DX001 (sc), vehicle: olive oil, sesame oil, peanut oil) was 102 % of control and the T/C [14] was 113 % of control and 119 % of control. The T/C (dose: 400.0 mg/kg/injection, schedule: Q01DX001 (sc), vehicle: olive oil, sesame oil, peanut oil) was 107 % of control.
For `CC(=O)Nc1c(Cl)c(Cl)c2c(c1Cl)C(O)c1cc(Cl)ccc1-2` (centres undefined), the T/C [13] was 103 % of control, the T/C [8] was 97 % of control and the T/C [14] was 114 % of control.
`C=CS(=O)(=O)c1ccccc1` was tested, and the T/C (dose: 18.0 mg/kg/injection, schedule: Q04DX003 (ip), vehicle: saline with Tween-80) was 102 % of control, the T/C [15] was 91 % of control and the T/C (dose: 36.0 mg/kg/injection, schedule: Q04DX003 (ip), vehicle: saline with Tween-80) was 104 % of control. The T/C [16] was 91 % of control, the T/C (dose: 72.0 mg/kg/injection, schedule: Q04DX003 (ip), vehicle: saline with Tween-80) was 98 % of control and the T/C [12] was 94 % of control. The T/C (dose: 100.0 mg/kg/injection, schedule: Q04DX003 (ip), vehicle: saline with Tween-80) was 97 % of control, the T/C (dose: 200.0 mg/kg/injection, schedule: Q04DX003 (ip), vehicle: saline with Tween-80) was 92 % of control and the T/C (dose: 400.0 mg/kg/injection, schedule: Q04DX003 (ip), vehicle: saline with Tween-80) was 95 % of control.
In the case of `CC[N+](CC)(CC)CC(=O)c1ccc(Br)cc1`, the T/C (dose: 25.0 mg/kg/injection, schedule: Q04DX002 (ip), vehicle: saline with Tween-80) is reported as 97 % of control, the T/C (dose: 50.0 mg/kg/injection, schedule: Q04DX002 (ip), vehicle: saline with Tween-80) is reported as 97 % of control and the T/C (dose: 100.0 mg/kg/injection, schedule: Q04DX002 (ip), vehicle: saline with Tween-80) is reported as 87 % of control and 92 % of control.
`O=C(O)/C=C\c1ccccc1` was tested, and the T/C (dose: 100.0 mg/kg/injection, schedule: Q01DX009 (ip), vehicle: other) was 100 % of control and the T/C (dose: 200.0 mg/kg/injection, schedule: Q01DX009 (ip), vehicle: other) was 95 % of control.
In the case of `Cc1ccc(N=Nc2ccc(C)cc2NC(=O)c2c(Br)c(Br)c(Br)c(Br)c2C(=O)O)cc1`, the T/C [17] is reported as 93 % of control and the T/C [18] is reported as 93 % of control.
`ClC(Cl)=C1C(Cl)=C(Cl)C(Cl)=C1Cl` was tested, and the T/C [16] was 97 % of control, the T/C [1] was 96 % of control and the T/C [12] was 100 % of control. For the same molecule, the T/C [3] was 96 % of control, the T/C [5] was 94 % of control and the T/C [6] was 93 % of control.
`COC(OC)C1OC(c2ccccc2)OC2COC(c3ccccc3)OC21` (centres undefined) was tested, and the T/C (dose: 12.5 mg/kg/injection, schedule: Q01DX009 (ip), vehicle: saline with Tween-80) was 92 % of control, the T/C (dose: 12.5 mg/kg/injection, schedule: Q04DX003 (ip), vehicle: saline with Tween-80) was 93 % of control and the T/C (dose: 25.0 mg/kg/injection, schedule: Q01DX009 (ip), vehicle: saline with Tween-80) was 92 % of control. For the same molecule, the T/C [10] was 92 % of control, the T/C (dose: 50.0 mg/kg/injection, schedule: Q01DX009 (ip), vehicle: saline with Tween-80) was 92 % of control and the T/C [11] was 92 % of control.
With `CSc1ccc(NC(=O)Nc2ccc(S(N)(=O)=O)cc2)cc1` the T/C [17] was 106 % of control, the T/C [3] was 104 % of control and the T/C [18] was 95 % of control. For the same molecule, the T/C [6] was 100 % of control, the T/C (dose: 400.0 mg/kg/injection, schedule: Q01DX009 (ip), vehicle: saline with Tween-80) was 102 % of control and the T/C [9] was 98 % of control.
